Measured values published in patent publication US5391540A, “Substituted pyridine compounds” (Rohm and Haas Company, priority 1993, dated 1995).

Legend:
Experiment in all cases: Pre-emergent herbicidal activity (Table A)
Assay type in all cases: in vivo
[1] = system: Common Lambsquarters; settings: Chenopodium album, pre-emergence, Colq, 11.2 kg/ha, 10-14 days, read-out: herbicidal rating (% inhibition)
Summary of the method: (§1)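 Seeds or vegetative propagules were set on topsoil compacted to 0.95 to 1.27 cm below the pan rim, then covered with soil thoroughly mixed with a known amount of test compound in acetone or water carrier. Ratings follow a scale of percent inhibition per species.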

[2] = system: Cocklebur; settings: Xanthium strumarium, pre-emergence, Cobu, 11.2 kg/ha, 10-14 days, read-out: herbicidal rating (% inhibition)
Summary of the method: as §1

[3] = system: Barnyardgrass; settings: Echinochloa crus-galli, pre-emergence, Bygr, 11.2 kg/ha, 10-14 days, read-out: herbicidal rating (% inhibition)
Summary of the method: as §1

[4] = system: Yellow Nutsedge; settings: Cyperus, pre-emergence, Yens, 11.2 kg/ha, 10-14 days, read-out: herbicidal rating (% inhibition)
Summary of the method: as §1

[5] = system: Canada thistle; settings: Cirsium arvense, pre-emergence, Cath, 11.2 kg/ha, 10-14 days, read-out: herbicidal rating (% inhibition)
Summary of the method: as §1

[6] = system: Quackgrass; settings: pre-emergence, Rhqg, 11.2 kg/ha, 10-14 days, read-out: herbicidal rating (% inhibition)
Summary of the method: as §1

[7] = system: Velvetleaf; settings: Abutilon theophrasti, pre-emergence, Vele, 11.2 kg/ha, 10-14 days, read-out: herbicidal rating (% inhibition)
Summary of the method: as §1

[8] = system: Morningglory; settings: Ipomoea, pre-emergence, Mogl, 11.2 kg/ha, 10-14 days, read-out: herbicidal rating (% inhibition)
Summary of the method: as §1

[9] = system: Pennsylvania Smartweed; settings: pre-emergence, Pesw, 11.2 kg/ha, 10-14 days, read-out: herbicidal rating (% inhibition)
Summary of the method: as §1

[10] = system: Rhizome Johnsongrass; settings: Sorghum halepense, pre-emergence, Rhjg, 11.2 kg/ha, 10-14 days, read-out: herbicidal rating (% inhibition)
Summary of the method: as §1

[11] = system: Downy Brome; settings: Bromus tectorum, pre-emergence, Dobr, 11.2 kg/ha, 10-14 days, read-out: herbicidal rating (% inhibition)
Summary of the method: as §1

SMILES | inhibition at 11200 g/ha [1] [%] | inhibition at 11200 g/ha [2] [%] | inhibition at 11200 g/ha [3] [%] | inhibition at 11200 g/ha [4] [%] | inhibition at 11200 g/ha [5] [%] | inhibition at 11200 g/ha [6] [%] | inhibition at 11200 g/ha [7] [%] | inhibition at 11200 g/ha [8] [%] | inhibition at 11200 g/ha [9] [%] | inhibition at 11200 g/ha [10] [%] | inhibition at 11200 g/ha [11] [%]
COC(=O)c1c(C(F)(F)F)nc(OC)c(C2=NCCO2)c1CC(C)C [Compound 27, 3-pyridinecarboxylic acid, 5-(4,5-dihydro-2-oxazolyl)-6-methoxy-4-(2-methylpropyl)-2-(trifluoromethyl)-, methyl ester] | 75 to 100 | 25 to 49 | 75 to 100 | 50 to 74 | 75 to 100 | 75 to 100 | 75 to 100 | 75 to 100 | 75 to 100 | 0 to 24 | 75 to 100
COC(=O)c1c(OC)nc(C(F)(F)F)c(C(=O)N2CCSC2)c1CC(C)C [Compound 71, 3-pyridinecarboxylic acid, 2-methoxy-4-(2-methylpropyl)-5-(3-thiazolidinylcarbonyl)-6-(trifluoromethyl)-, methyl ester] | 75 to 100 | 0 to 24 | 75 to 100 | 0 to 24 | 25 to 49 | 50 to 74 | 25 to 49 | 50 to 74 | 50 to 74 | 0 to 24 | 75 to 100
COC(=O)c1c(OC)nc(C(F)(F)F)c(C(=O)OC)c1CSC [Compound 89, 3,5-pyridinedicarboxylic acid, 2-methoxy-4-[(methylthio)methyl]-6-(trifluoromethyl)-, dimethyl ester] | 75 to 100 | 25 to 49 | 75 to 100 | 0 to 24 | 75 to 100 | 25 to 49 | 75 to 100 | 75 to 100 | 75 to 100 | 0 to 24 | 25 to 49
COC(=O)c1c(OC)nc(C(F)(F)F)c(CO)c1CC(C)C [Compound 40, 3-pyridinecarboxylic acid, 5-(hydroxymethyl)-2-methoxy-4-(2-methylpropyl)-6-(trifluoromethyl)-, methyl ester] | 75 to 100 | 0 to 24 | 75 to 100 | 0 to 24 | 0 to 24 | 75 to 100 | 25 to 49 | 0 to 24 | 75 to 100 | 0 to 24 | 75 to 100
COC(=O)c1c(OC)nc(C(F)(F)F)c(C(=O)n2cccn2)c1C1CCC1 [Compound 52, 3-pyridinecarboxylic acid, 4-cyclobutyl-2-methoxy-5-(1H-pyrazo1-1-ylcarbonyl)-6-(trifluoromethyl)-, methyl ester] | 75 to 100 | 75 to 100 | 75 to 100 | 75 to 100 | 75 to 100 | 75 to 100 | 75 to 100 | 75 to 100 | 75 to 100 | 0 to 24 | 75 to 100
COC(=O)c1c(C(F)(F)F)[nH]c(=O)c(C#N)c1CC(C)C [Compound 22, 3-pyridinecarboxylic acid, 5-cyano-1,6-dihydro-4-(2-methylpropyl)-6-oxo-2-(trifluoromethyl)-, methyl ester] | 0 to 24 | 0 to 24 | 0 to 24 | 0 to 24 | 0 to 24 | 0 to 24 | 0 to 24 | 0 to 24 | 0 to 24 | 0 to 24 | 0 to 24
COC(=O)c1c(C(F)(F)F)nc(OC)c(C#N)c1CC(C)C [Compound 20, 3-pyridinecarboxylic acid, 5-cyano-6-methoxy-4-(2-methylpropyl)-2-(trifluoromethyl)-, methyl ester] | 75 to 100 | 0 to 24 | 75 to 100 | 0 to 24 | 0 to 24 | 75 to 100 | 0 to 24 | 50 to 74 | 25 to 49 | 75 to 100 | 75 to 100
COC(=O)c1c(C(F)(F)F)nc(OC)c(C(=O)NCCO)c1CC(C)C [Compound 25, 3-pyridinecarboxylic acid, 5-[[(2-hydroxyethyl)amino]carbonyl]-6-methoxy-4-(2-methylpropyl)-2-(trifluoromethyl)-, methyl ester, hydrate (1:0.2)] | 0 to 24 | 0 to 24 | 0 to 24 | 0 to 24 | 0 to 24 | 0 to 24 | 0 to 24 | 0 to 24 | 0 to 24 | 0 to 24 | 0 to 24
CNC(=O)c1c(C(F)(F)F)nc(OC)c(C(=O)OC)c1CC(C)C [Compound 37, 3-pyridinecarboxylic acid, 2-methoxy-5-[(methylamino)carbonyl]-4-(2-methylpropyl)-6-(trifluoromethyl)-, methyl ester] | 75 to 100 | 0 to 24 | 0 to 24 | 0 to 24 | 0 to 24 | 0 to 24 | 0 to 24 | 0 to 24 | 0 to 24 | 0 to 24 | 0 to 24
COC(=O)c1c(OC)nc(C(F)(F)F)c(C(=O)N2CC2C)c1CC(C)C (stereo not shown) [Compound 72] | 75 to 100 | 0 to 24 | 75 to 100 | 0 to 24 | 0 to 24 | 0 to 24 | 25 to 49 | 25 to 49 | 25 to 49 | 0 to 24 | 75 to 100
CNC(=O)c1c(OC)nc(C(F)(F)F)c(C(=O)OC)c1CC(C)C [Compound 21, 3-pyridinecarboxylic acid, 6-methoxy-5-[(methylamino)carbonyl]-4-(2-methylpropyl)-2-(trifluoromethyl)-, methyl ester] | 75 to 100 | 0 to 24 | 75 to 100 | 0 to 24 | 0 to 24 | 75 to 100 | 0 to 24 | 0 to 24 | 0 to 24 | 0 to 24 | 75 to 100
COC(=O)c1c(OC)nc(C(F)(F)F)c(C(=O)OC)c1CC1CC1 [Compound 92, 3,5-pyridinedicarboxylic acid, 4-(cyclopropylmethyl)-2-methoxy-6-(trifluoromethyl)-, dimethyl ester] | 75 to 100 | 50 to 74 | 75 to 100 | 75 to 100 | 75 to 100 | 75 to 100 | 75 to 100 | 75 to 100 | 75 to 100 | 0 to 24 | 75 to 100
COC(=O)c1c(OC)nc(C(F)(F)F)c(C(=O)N2CCOCC2)c1CC(C)C [Compound 69, 3-pyridinecarboxylic acid, 2-methoxy-4-(2-methylpropyl)-5-(4-morpholinyl)carbony1-6-(trifluoromethyl)-, methyl ester] | 75 to 100 | 0 to 24 | 75 to 100 | 0 to 24 | 50 to 74 | 75 to 100 | 0 to 24 | 25 to 49 | 0 to 24 | 50 to 74 | 25 to 49
CN=C(SC)c1c(C(F)(F)F)nc(OC)c(C(=O)OC)c1CC(C)C [Compound 41, 3-pyridinecarboxylic acid, 2-methoxy-5-[(methylimino)(methylthio)methyl]-4-(2-methylpropyl)-6-(trifluoromethyl)-, methyl ester] | 75 to 100 | 25 to 49 | 75 to 100 | 0 to 24 | 75 to 100 | 75 to 100 | 75 to 100 | 75 to 100 | 75 to 100 | 0 to 24 | 75 to 100
